Tested on: Human valve interstitial cells (VIC)
Assay: Calcification inhibition in human valve interstitial cells (VIC); staining followed by spectroscopy
Assay type: cell-based
Conditions: VIC isolated from human aortic valves; calcification induced; test substance contacted during or after induced calcification; degree of calcification by staining and spectroscopy (FIG. 2, FIG. 3)
Procedure: Human valve interstitial cells (VIC) are isolated from human aortic valves harvested during surgery for use in calcification inhibitor testing. After isolation, calcification is induced in the cells. The activity of potential inhibitors is assayed by contacting the VIC cells with the test substance during or after the induced calcification. The degree of calcification is measured by staining followed by spectroscopy. FIG. 1 provides photomicrographs of control cells (no induced calcification, left panel), cells where calcification is induced (middle panel), and calcification in the presence of an inhibitor (right panel).

SMILES	inhibition of calcification
COc1ccc2[nH]c([S+]([O-])Cc3ncc(C)c(OC)c3C)nc2c1 (stereo not shown) [omeprazole]	inhibition of calcification
Cc1c(OCC(F)(F)F)ccnc1C[S+]([O-])c1nc2ccccc2[nH]1 (stereo not shown) [lansoprazole]	inhibition of calcification
COCCCOc1ccnc(C[S+]([O-])c2nc3ccccc3[nH]2)c1C (stereo not shown) [Rabeprazole, rabeprazole]	inhibition of calcification
COc1ccnc(C[S+]([O-])c2nc3cc(OC(F)F)ccc3[nH]2)c1OC (stereo not shown) [pantoprazole]	inhibition of calcification
